Laboratory results from patent publication EP2557075A1, “New triazene compounds for treating cancer” (Trin Therapeutics GmbH, priority 2011, dated 2013).
pIC50: −log10 of the molar value. Read-outs that look alike come from different tables or passages of the source.

Tests used:
[1] = test system: periphere Blutzellen (PBC); assay: Cell damage (apoptosis rate, CaspACE assay, flow cytometry) in peripheral blood cells (Experiment 5); assay type: cell-based; conditions: for % Zellen in Apoptose: Versuch 1 Lymphozyten, 24 Stunden incubation at the IC50 for MDA-MB231
Source text: Um die therapeutische Breite der neuen Substanzen abschätzen zu können, wurden periphere Blutzellen (PBC) und hämatologische Zellen (Nalm-6; CEM und U-937) für 24 Stunden mit unterschiedlichen Dosen verschiedener Triazenverbindungen bzw. Doxorubicin als positive Kontrolle für die hämatologischen Zelllinien inkubiert. Das Maß der Zellschädigung (Apoptoserate) wurde mittels CaspACE™ Assay (am Durchflusszytometer) bestimmt.
Verschiedene Triazene wie erfindungsgemäße Verbindungen nach Beispiel 1, TMZ sowie Verbindungen nach Präparat 2 und 5 (entsprechend Verbindungen nach Präparat 2 und Beispiel 2a jeweils der WO 2009/004060) wurden in DMSO bzw. Wasser entsprechend den Angaben in Abbildung 22 gelöst.
(§1) Periphäre Blutzellen (PBC) werden jeweils mit der IC50 für die MDA-MB231 gemäß Experiment 3 der entsprechenden Substanzen inkubiert. Es wird gezeigt, dass die erfindungsgemäße Verbindung nach Beispiel 1 nicht mehr DNA-Schädigungen in den PBC erzeugt als eine Negativkontrolle, […]

[2] = test system: MDA-MB231; assay: IC50 of triazenes in MDA-MB231 cell line (Experiment 3); assay type: cell-based; conditions: Homo sapiens, MDA-MB-231; IC50 für die MDA-MB231 gemäß Experiment 3; used as incubation concentration for PBC
Source text: Die nachfolgenden Experimente 3 und 4 zeigen, dass die erfindungsgemäßen neuen Triazenverbindungen eine vergleichbare Anti-Tumorwirkung (IC50) in zahlreichen Krebszelllinien wie der HepG2 (Leber), HCT8 (Darm), DU-145 (Prostata), MCF-7 und MDA-MB-231 (Brust) und MiaPaca-2 (Bauchspeicheldrüse) bei bis zu 100fach niedrigeren Konzentrationen zeigen als vergleichbare Triazene wie DTIC, TMZ oder Substanzen wie sie in der WO 2009/004060 und der DE 1 7931 1 5 beschrieben sind.
Verschiedene Triazene wie erfindungsgemäße Verbindungen nach Beispiel 1, DTIC, TMZ sowie Verbindungen nach Präparat 2 und 5 (entsprechend Verbindungen nach Präparat 2 und Beispiel 2a jeweils der WO 2009/004060) sowie Verbindungen nach Beispiel 33 der DE1793115 wurden in DMSO bzw. Wasser gelöst.
as §1

[3] = test system: HL-60; assay: Growth inhibition (IC50) in leukaemic HL-60 cells (Experiment 7); assay type: cell-based; conditions: Homo sapiens, HL-60, 24 Stunden
Source text: (§2) Hämatologische Zellen (CEM, HL-60) wurden für 24 Stunden mit unterschiedlichen Dosen verschiedener Triazenverbindungen inkubiert, um die IC50 zu bestimmen.

[4] = test system: CEM; assay: Growth inhibition (IC50) in leukaemic CEM cells (Experiment 7); assay type: cell-based; conditions: Homo sapiens, CCRF-CEM, 24 Stunden
Source text: as §2

[5] = Formulation trials for intravenous application (Experiment 8); assay type: physicochemical
Protocol: Um die Testergebnisse aus Experiment 7 in einem in-vivo Xenograft Modell zu bestätigen, wurden Formulierungsversuche mit Verbindungen nach Beispiel 1 sowie der Verbindung nach Beispiel 2 aus DE 1 793 1 15, als den wirksamsten Verbindungen aus Experiment 7, unternommen.
15mg der Verbindung nach Beispiel 1 werden in 30µL DMSO ([…]) gelöst. Diese Stocklösung wird in 270µL 1 M Na2CO3 Lösung gegeben und nur leicht geschwenkt, nicht aber mittels Ultraschallbad behandelt.
Gleichermaßen sollte eine Formulierung für Verbindungen nach Beispiel 2 aus DE 1 7 93 1 15 hergestellt werden. Hier wurden 15µL der Verbindung nach Beispiel 2 vorgelegt. Bei einer Dichte von 1,08g/ml entsprach dies 16,2mg der Verbindung nach Beispiel 2. Dazu wurden 32,4µL DMSO gegeben. […] Sodann wurden 90µL einer frisch hergestellten 1 molaren Na2CO3 Lösung vorgelegt und 10µL der Lösung der Verbindung nach Beispiel 2 hinzugegeben. […] Auch mittels Ultraschallbad konnte keine Auflösung des erzeugten Niederschlags herbeiführen.

[6] = test system: MCF-7-Zellen; assay: Intracellular metabolisation of triazenes in MCF-7 cell culture (Experiment 1); assay type: in vitro ADME; conditions: MCF-7, 100nmol/ml, 100% FCS, binnen 20 Stunden
Protocol: Es wird gezeigt, dass Verbindungen nach Beispiel 1 schneller und in größerer Menge intrazellulär metabolisiert werden als die als Vergleichssubstanzen eingesetzten Verbindungen nach Präparat 2 und 5 (entsprechend Verbindungen nach Präparat 2 und Beispiel 2a jeweils der WO 2009/004060).
Die getesteten Verbindungen wurden wie folgt gelöst: • Erfindungsgemäße Verbindung: • Beispiel 1 : in 20 mg/ml DMSO
Vergleichssubstanzen: • Präparat 2: in 50mg/ml DMSO, • Präparat 5: in 50mg/ml Wasser.
Alle drei Substanzen wurden äquimolar in einer Dosis von 100nmol/ml auf 1 x 10^7 HepG2 bzw. MCF-7-Zellen gegeben. Als Zellkulturmedium wurde 100% fötales Kälberserum (FCS) verwendet. Für den Versuch wurde der Gehalt aus Ausgangsprodukt und Metaboliten im Zellüberstand nach 1, 3 und 6 (HepG2) bzw. 1,3 und 20 Stunden (MCF-7) Inkubationszeit ermittelt. Alle drei Substanzen zeigten in Kontrollversuchen mit 100% FCS nach 40 Stunden metabolische Stabilität.

[7] = mean of Exp. 1-4, read-out: IC50 Mittelwert
[8] = mean of Exp. 1-5, read-out: IC50 Mittelwert

SMILES | Zellschädigung (Apoptoserate) vs. Negativkontrolle ([1]; PBC, 24 stündige Inkubation) | % Zellen in Apoptose [1] | IC50 [2] | pIC50 ([3]; read-out: IC50 Exp. 1) | pIC50 ([3]; read-out: IC50 Exp. 2) | pIC50 ([3]; read-out: IC50 Exp. 3) | pIC50 ([3]; read-out: IC50 Exp. 4) | pIC50 ([3]; read-out: IC50 Exp. 5) | pIC50 [4, 7] | pIC50 ([4]; read-out: IC50 Exp. 1) | pIC50 ([4]; read-out: IC50 Exp. 2) | pIC50 ([4]; read-out: IC50 Exp. 3) | pIC50 ([4]; read-out: IC50 Exp. 4) | pIC50 [3, 8] | Löslichkeit in DMSO ([5]; 16,2mg in 32,4µL DMSO) | Löslichkeit in der Formulierung ([5]; DMSO stock solution given into 1 M Na2CO3 Lösung) | stabile und verträgliche Formulierung ([5]; Lösungsmittel wie Cremophor, PEG400, Tween80, Poloxamer) | metabolisiert [6]
Cn1nnc2c(C(N)=O)ncn2c1=O [Temozolomide, 4-methyl-5-oxo-2,3,4,6,8-pentazabicyclo [4.3.0] nona-2,7,9-triene-9-carboxamide] | Anstieg der Apoptoserate | 15,320% | 515 µM | – | – | – | – | – | – | – | – | – | – | – | – | – | – | –
COc1cccc2c1C(=O)c1c(O)c3c(c(O)c1C2=O)C[C@@](O)(C(=O)CO)C[C@@H]3O[C@H]1C[C@H](N)[C@H](O)[C@H](C)O1 [Doxorubicin] | – | – | – | 8.92 | 8.94 | 9.18 | 8.88 | 8.87 | 2.07 | 2.17 | 2.23 | 2.00 | 3.94 | – | – | – | – | –
CN(C)N=Nc1ccc(C(=O)c2ccccc2)cc1 [Beispiel 2 der DE 1793115] | – | 6,570% | 25.5 µM | 5.06 | 4.93 | 4.96 | 5.02 | 5.04 | 5.00 | 4.99 | 4.99 | 5.06 | 4.97 | 5.00 | löste sich vollständig | Sofort fiel weißer Niederschlag aus | nicht erreicht werden konnte | –
CN(C)/N=N/c1[nH]cnc1C(N)=O [Dacarbazine] | – | 8,260% | 625 µM | – | – | – | – | – | – | – | – | – | – | – | – | – | – | –
CN(C)N=Nc1ccc(C(=O)c2ccc(OCCC(=O)NCC(=O)O)cc2)cc1 [Präparat 5] | – | – | – | 3.08 | 3.06 | 2.81 | 2.82 | – | 3.13 | 3.12 | 3.06 | 3.17 | 3.20 | 2.93 | – | – | – | ~30%
